Organism: Rattus norvegicus
Assay: DrugMatrix - Regimen: Daily Repeat
Assay type: toxicity, organism-based, Sprague-Dawley
Set-up: regimen Daily Repeat, gender Male, age 6-8 weeks
Details: in vivo, po, route oral GAVAGE, vehicle .5 % CMC; for BASOPHIL / EOSINOPHIL / ERYTHROCYTE COUNT / HEMATOCRIT / HEMOGLOBIN / LEUKOCYTE COUNT / LYMPHOCYTE / MEAN CORPUSCULAR HEMOGLOBIN / MEAN CORPUSCULAR HEMOGLOBIN CONCENTRATION / MEAN CORPUSCULAR VOLUME / MONOCYTE / NEUTROPHIL / PLATELET COUNT: tissue Blood; for ALANINE AMINOTRANSFERASE / ALBUMIN / ALKALINE PHOSPHATASE / ASPARTATE AMINOTRANSFERASE / BLOOD UREA NITROGEN / CHLORIDE / CHOLESTEROL / CREATINE PHOSPHOKINASE / CREATININE / GLUCOSE / PHOSPHORUS / POTASSIUM / SODIUM / TOTAL BILIRUBIN / TOTAL PROTEIN: tissue Plasma
[1] = 0 mg/kg, 72 h, dose level Control, time 3 day
[2] = 0 mg/kg, 120 h, dose level Control, time 5 day
[3] = 94 mg/kg, 72 h, dose level High, time 3 day
[4] = 94 mg/kg, 120 h, dose level High, time 5 day
[5] = […], 72 h, dose 9.4 mg/Kg, dose level Low, time 3 day
[6] = […], 120 h, dose 9.4 mg/Kg, dose level Low, time 5 day

O=C(CCCN1CC=C(n2c(=O)[nH]c3ccccc32)CC1)c1ccc(F)cc1 [DROPERIDOL]
BASOPHIL [1]: 1.52% | EOSINOPHIL [1]: 0.98% | ERYTHROCYTE COUNT [1]: 6.96 x10E6/uL | HEMATOCRIT [1]: 44.65% | HEMOGLOBIN [1]: 13.62 G/DL | LEUKOCYTE COUNT [1]: 9.83 x10E3/uL | LYMPHOCYTE [1]: 76.48% | MEAN CORPUSCULAR HEMOGLOBIN [1]: 19.57 pg | MEAN CORPUSCULAR HEMOGLOBIN CONCENTRATION [1]: 30.47 G/DL | MEAN CORPUSCULAR VOLUME [1]: 64.22 fL | MONOCYTE [1]: 2.13% | NEUTROPHIL [1]: 18.6% | PLATELET COUNT [1]: 1217.17 x10E3/uL | ALANINE AMINOTRANSFERASE [1]: 41 u/L | ALBUMIN [1]: 3.77 G/DL | ALKALINE PHOSPHATASE [1]: 411.83 u/L | ASPARTATE AMINOTRANSFERASE [1]: 62.83 u/L | BLOOD UREA NITROGEN [1]: 15.17 mg/dL | CHLORIDE [1]: 104.33 MEQ/L | CHOLESTEROL [1]: 71.17 mg/dL | CREATINE PHOSPHOKINASE [1]: 123.5 u/L | CREATININE [1]: 0.55 mg/dL | GLUCOSE [1]: 182.67 mg/dL | PHOSPHORUS [1]: 11.23 mg/dL | POTASSIUM [1]: 7.03 MEQ/L | SODIUM [1]: 148 MEQ/L | TOTAL BILIRUBIN [1]: 0.57 mg/dL | TOTAL PROTEIN [1]: 6.85 G/DL | BASOPHIL [2]: 1.35% | EOSINOPHIL [2]: 0.43% | ERYTHROCYTE COUNT [2]: 6.96 x10E6/uL | HEMATOCRIT [2]: 44.35% | HEMOGLOBIN [2]: 13.98 G/DL | LEUKOCYTE COUNT [2]: 9.45 x10E3/uL | LYMPHOCYTE [2]: 80.83% | MEAN CORPUSCULAR HEMOGLOBIN [2]: 20.1 pg | MEAN CORPUSCULAR HEMOGLOBIN CONCENTRATION [2]: 31.52 G/DL | MEAN CORPUSCULAR VOLUME [2]: 63.72 fL | MONOCYTE [2]: 2.37% | NEUTROPHIL [2]: 14.05% | PLATELET COUNT [2]: 1298 x10E3/uL | ALANINE AMINOTRANSFERASE [2]: 42.17 u/L | ALBUMIN [2]: 3.77 G/DL | ALKALINE PHOSPHATASE [2]: 419 u/L | ASPARTATE AMINOTRANSFERASE [2]: 66.67 u/L | BLOOD UREA NITROGEN [2]: 16.67 mg/dL | CHLORIDE [2]: 103.17 MEQ/L | CHOLESTEROL [2]: 66.33 mg/dL | CREATINE PHOSPHOKINASE [2]: 148.33 u/L | CREATININE [2]: 0.58 mg/dL | GLUCOSE [2]: 196.83 mg/dL | PHOSPHORUS [2]: 11.8 mg/dL | POTASSIUM [2]: 6.47 MEQ/L | SODIUM [2]: 148.33 MEQ/L | TOTAL BILIRUBIN [2]: 0.53 mg/dL | TOTAL PROTEIN [2]: 6.77 G/DL | BASOPHIL [3]: 2.03% | EOSINOPHIL [3]: 0.53% | ERYTHROCYTE COUNT [3]: 7.81 x10E6/uL | HEMATOCRIT [3]: 49.37% | HEMOGLOBIN [3]: 15.57 G/DL | LEUKOCYTE COUNT [3]: 13.33 x10E3/uL | LYMPHOCYTE [3]: 87.57% | MEAN CORPUSCULAR HEMOGLOBIN [3]: 20.1 pg | MEAN CORPUSCULAR HEMOGLOBIN CONCENTRATION [3]: 31.57 G/DL | MEAN CORPUSCULAR VOLUME [3]: 63.57 fL | MONOCYTE [3]: 2.1% | NEUTROPHIL [3]: 7% | PLATELET COUNT [3]: 1484.33 x10E3/uL | ALANINE AMINOTRANSFERASE [3]: 35.67 u/L | ALBUMIN [3]: 4.03 G/DL | ALKALINE PHOSPHATASE [3]: 335 u/L | ASPARTATE AMINOTRANSFERASE [3]: 61.67 u/L | BLOOD UREA NITROGEN [3]: 21.67 mg/dL | CHLORIDE [3]: 102.33 MEQ/L | CHOLESTEROL [3]: 79.67 mg/dL | CREATINE PHOSPHOKINASE [3]: 112.67 u/L | CREATININE [3]: 0.67 mg/dL | GLUCOSE [3]: 149 mg/dL | PHOSPHORUS [3]: 11.77 mg/dL | POTASSIUM [3]: 7.13 MEQ/L | SODIUM [3]: 148 MEQ/L | TOTAL BILIRUBIN [3]: 0.6 mg/dL | TOTAL PROTEIN [3]: 7.1 G/DL | BASOPHIL [4]: 1.4% | EOSINOPHIL [4]: 0.5% | ERYTHROCYTE COUNT [4]: 8.34 x10E6/uL | HEMATOCRIT [4]: 50.33% | HEMOGLOBIN [4]: 16.1 G/DL | LEUKOCYTE COUNT [4]: 13.23 x10E3/uL | LYMPHOCYTE [4]: 84.5% | MEAN CORPUSCULAR HEMOGLOBIN [4]: 19.37 pg | MEAN CORPUSCULAR HEMOGLOBIN CONCENTRATION [4]: 32.03 G/DL | MEAN CORPUSCULAR VOLUME [4]: 60.43 fL | MONOCYTE [4]: 2.13% | NEUTROPHIL [4]: 10.53% | PLATELET COUNT [4]: 1440.33 x10E3/uL | ALANINE AMINOTRANSFERASE [4]: 53 u/L | ALBUMIN [4]: 3.87 G/DL | ALKALINE PHOSPHATASE [4]: 248 u/L | ASPARTATE AMINOTRANSFERASE [4]: 83 u/L | BLOOD UREA NITROGEN [4]: 23.33 mg/dL | CHLORIDE [4]: 103 MEQ/L | CHOLESTEROL [4]: 68 mg/dL | CREATINE PHOSPHOKINASE [4]: 108.67 u/L | CREATININE [4]: 0.67 mg/dL | GLUCOSE [4]: 160.67 mg/dL | PHOSPHORUS [4]: 12.3 mg/dL | POTASSIUM [4]: 7.17 MEQ/L | SODIUM [4]: 149 MEQ/L | TOTAL BILIRUBIN [4]: 0.67 mg/dL | TOTAL PROTEIN [4]: 6.93 G/DL | BASOPHIL [5]: 1.77% | EOSINOPHIL [5]: 0.47% | ERYTHROCYTE COUNT [5]: 7.08 x10E6/uL | HEMATOCRIT [5]: 45.83% | HEMOGLOBIN [5]: 14.3 G/DL | LEUKOCYTE COUNT [5]: 15.23 x10E3/uL | LYMPHOCYTE [5]: 83.7% | MEAN CORPUSCULAR HEMOGLOBIN [5]: 20.13 pg | MEAN CORPUSCULAR HEMOGLOBIN CONCENTRATION [5]: 31.1 G/DL | MEAN CORPUSCULAR VOLUME [5]: 64.77 fL | MONOCYTE [5]: 1.6% | NEUTROPHIL [5]: 11.93% | PLATELET COUNT [5]: 1499.67 x10E3/uL | ALANINE AMINOTRANSFERASE [5]: 36.67 u/L | ALBUMIN [5]: 3.67 G/DL | ALKALINE PHOSPHATASE [5]: 351.67 u/L | ASPARTATE AMINOTRANSFERASE [5]: 62.33 u/L | BLOOD UREA NITROGEN [5]: 14 mg/dL | CHLORIDE [5]: 103.67 MEQ/L | CHOLESTEROL [5]: 70.33 mg/dL | CREATINE PHOSPHOKINASE [5]: 125.33 u/L | CREATININE [5]: 0.6 mg/dL | GLUCOSE [5]: 162.33 mg/dL | PHOSPHORUS [5]: 12.83 mg/dL | POTASSIUM [5]: 7.2 MEQ/L | SODIUM [5]: 147.67 MEQ/L | TOTAL BILIRUBIN [5]: 0.5 mg/dL | TOTAL PROTEIN [5]: 6.57 G/DL | BASOPHIL [6]: 2.17% | EOSINOPHIL [6]: 0.4% | ERYTHROCYTE COUNT [6]: 6.89 x10E6/uL | HEMATOCRIT [6]: 44.3% | HEMOGLOBIN [6]: 14.03 G/DL | LEUKOCYTE COUNT [6]: 11 x10E3/uL | LYMPHOCYTE [6]: 83.27% | MEAN CORPUSCULAR HEMOGLOBIN [6]: 20.4 pg | MEAN CORPUSCULAR HEMOGLOBIN CONCENTRATION [6]: 31.7 G/DL | MEAN CORPUSCULAR VOLUME [6]: 64.43 fL | MONOCYTE [6]: 2.07% | NEUTROPHIL [6]: 11.2% | PLATELET COUNT [6]: 1298.67 x10E3/uL | ALANINE AMINOTRANSFERASE [6]: 37.67 u/L | ALBUMIN [6]: 3.63 G/DL | ALKALINE PHOSPHATASE [6]: 359 u/L | ASPARTATE AMINOTRANSFERASE [6]: 62.33 u/L | BLOOD UREA NITROGEN [6]: 13.33 mg/dL | CHLORIDE [6]: 101.33 MEQ/L | CHOLESTEROL [6]: 65 mg/dL | CREATINE PHOSPHOKINASE [6]: 109 u/L | CREATININE [6]: 0.5 mg/dL | GLUCOSE [6]: 191 mg/dL | PHOSPHORUS [6]: 12.2 mg/dL | POTASSIUM [6]: 7.17 MEQ/L | SODIUM [6]: 147.33 MEQ/L | TOTAL BILIRUBIN [6]: 0.3 mg/dL | TOTAL PROTEIN [6]: 6.4 G/DL
